What is called IC50 is the point on the concentration scale where inhibition reaches its midpoint.

Here are results for twelve molecules from PMC9272937, “Anti-breast cancer sinomenine derivatives via mechanisms of apoptosis induction and metastasis reduction” (Journal of Enzyme Inhibition and Medicinal Chemistry, 2022).

Read-outs that look alike come from different tables or passages of the source. Some results are limits rather than exact numbers.

Experiment [1] can be described thus: Griess assay, NO-releasing capacity. Particulars: 10^−4 mol/l compound, L-cysteine, 37 °C, 15-180 min. The procedure:
The NO-releasing capacity of each target compound was determined by the colorimetric method under the instructions of the manufacturer. Preparation of standard curves of 0, 1.56, 3.13, 6.25, 12.5, 25, 50 and 100 μmol/L nitrite nitrogen series standard solution was prepared. 50 μL to 96-well plate was added respectively and then mixed with 50 μL Griess I and Griess II; the absorption value was measured at 540 nm wavelength. A standard curve was drawn from the obtained data. Compounds were formulated into 10^−4 mol/l with PBS (pH = 7.4) and pharmaceutical DMSO. The newly formulated L-cysteine solution 100 μL ([…]) was added and incubated at 37 °C for 15, 30, 45, 60, 90, 120, 150 and180 min, respectively. Griess I and II recovered to room temperature, 50 μL of compounds 7A–E(a–c) were added respectively into the 96-well plate, and then 50 μL of Griess I and 50 μL of Griess II were added in sequence, with the absorbance tested at 540 nm. The amount of NO released was then calculated according to the standard curve.
On the technique in general: The Griess reaction detects nitrite, a stable product of nitric oxide.

Experiment [2] relates to human lung cancer cell line A549. The experiment can be described thus: CCK-8 antiproliferative assay, A549. In kind it is cell-based. The note with it: CCK-8, 48 h, mean ± SD of three experiments. The procedure: (§1) The antiproliferative activities of target compounds were examined by CCK-8 assay in three cancer cells (human lung cancer cell line A549, human mammary gland tumour cell line MCF-7 and human TNBC cell line MDA-MB-231) and one normal cell (human normal breast cell line MCF10A). All cell lines were sourced from KeyGEN Biotech, […], China, and a standard DMEM medium was applied to all cell cultures then subjected to 24 h incubation at 37 °C in a humidified environment with 5% CO2. After that logarithmic growing cells were plated on 96-well plates with 8,000 cells per well in a […] medium for 24 h incubation at 37 °C with 5% CO2. The DMEM medium with bovine serum was removed from each well. Then, prerequisite target compounds and positive controls were added to different cell lines in a predetermined concentration regiment for 48 h culture.
In general terms: Formazan colour is commonly taken as a measure of viable cells.

Experiment [3] has as its system human TNBC cell line MDA-MB-231. Kind of experiment: CCK-8 antiproliferative assay, MDA-MB-231. In kind it is cell-based. Particulars: for IC50: Homo sapiens, read-out: IC50 MDA-MB-231; for SI MDA-MB-231 (selectivity index): SI = IC50(MCF-10A)/IC50(MDA-MB-231). The procedure: as §1
Experiment [4] deals with human mammary gland tumour cell line MCF-7. The experiment can be described thus: CCK-8 antiproliferative assay, MCF-7. Particulars: for IC50: Homo sapiens, read-out: IC50 MCF-7; for SI MCF-7 (selectivity index): SI = IC50(MCF-10A)/IC50(MCF-7). In kind it is cell-based. The procedure:
as §1

Experiment [5] relates to human normal breast cell line MCF10A. The experiment can be described thus: CCK-8 assay, normal cells MCF10A. In kind it is cell-based. Particulars: MCF-10A, CCK-8, 48 h, mean ± SD of three experiments. The procedure:
as §1

`COC1=CC2[C@H]3Cc4ccc(OC)c(OC(=O)CCC(=O)OCCOc5no[n+]([O-])c5S(=O)(=O)c5ccccc5)c4[C@@]2(CCN3C)CC1=O` (stereo partly drawn) [7Aa, 4–(2-((4-(((4bs,9R)-3,7-Dimethoxy-11-methyl-6-oxo-6,8a,9,10-tetrahydro-5H-9,4b-(epiminoethano)phenanthren-4-yl)oxy)-4-oxobutanoyl)oxy)ethoxy)-3-(phenylsulfonyl)-1,2,5-oxadiazole 2-oxide]: in experiment [1], the NO peak releasing result is “exceeding 40 μmol/L”. The 50% inhibitory concentration (IC50) is 15.2 ± 1.37 µM in experiment [2] (Homo sapiens, A549); 31.5 ± 2.77 µM in experiment [3] (MDA-MB-231, 48 h); 26.4 ± 1.25 µM in experiment [4] (MCF7, 48 h); over 50 µM in experiment [5]. Moreover, the “SI MDA-MB-231 (selectivity index)” value in experiment [3] is reported as over 1.58. Also, in experiment [4], the “SI MCF-7 (selectivity index)” value is on record as over 1.89.

`COC1=CC2[C@H]3Cc4ccc(OC)c(OC(=O)CCCC(=O)OCCCOc5no[n+]([O-])c5S(=O)(=O)c5ccccc5)c4[C@@]2(CCN3C)CC1=O` (stereo partly drawn) [7Bb, 4–(3-((5-(((4bs,9R)-3,7-Dimethoxy-11-methyl-6-oxo-6,8a,9,10-tetrahydro-5H-9,4b-(epiminoethano)phenanthren-4-yl)oxy)-5-oxopentanoyl)oxy)propoxy)-3-(phenylsulfonyl)-1,2,5-oxadiazole 2-oxide]: the IC50 was 4.91 ± 0.3 µM in experiment [2] (Homo sapiens, A549); 16.4 ± 1.55 µM in experiment [3] (MDA-MB-231, 48 h); 19.7 ± 1.28 µM in experiment [4] (MCF7, 48 h); over 50 µM in experiment [5]. Also, the “SI MDA-MB-231 (selectivity index)” value in experiment [3] is listed as over 3.04. The “SI MCF-7 (selectivity index)” value in experiment [4] is recorded as over 2.54.

Turning to `COC1=CC2[C@H]3Cc4ccc(OC)c(OC(=O)c5ccccc5C(=O)OCCCCCOc5no[n+]([O-])c5S(=O)(=O)c5ccccc5)c4[C@@]2(CCN3C)CC1=O` (stereo partly drawn) [7Dc, 4-((5-((2-((((4bs,9R)-3,7-Dimethoxy-11-methyl-6-oxo-6,8a,9,10-tetrahydro-5H-9,4b-(epiminoethano)phenanthren-4-yl)oxy)carbonyl)benzoyl)oxy)pentyl)oxy)-3-(phenylsulfonyl)-1,2,5-oxadiazole 2-oxide], the NO peak releasing result in experiment [1] was “exceeding 40 μmol/L”. For the same molecule, the IC50 in experiment [2] (Homo sapiens, A549) was found to be 1.63 ± 0.05 µM; in experiment [3] (MDA-MB-231, 48 h), 1.88 ± 0.09 µM; in experiment [4] (MCF7, 48 h), 2.18 ± 0.1 µM; in experiment [5], 19.9 ± 1.43 µM. In experiment [3], the “SI MDA-MB-231 (selectivity index)” value worked out at 10.56. Besides, the “SI MCF-7 (selectivity index)” value in experiment [4] worked out at 9.11.

Regarding `COC1=CC2[C@H]3Cc4ccc(OC)c(OC(=O)CCCC(=O)OCCOc5no[n+]([O-])c5S(=O)(=O)c5ccccc5)c4[C@@]2(CCN3C)CC1=O` (stereo partly drawn) [7Ab, 4–(2-((5-(((4bs,9R)-3,7-Dimethoxy-11-methyl-6-oxo-6,8a,9,10-tetrahydro-5H-9,4b-(epiminoethano)phenanthren-4-yl)oxy)-5-oxopentanoyl)oxy)ethoxy)-3-(phenylsulfonyl)-1,2,5-oxadiazole 2-oxide], the half-inhibitory concentration (IC50) in experiment [2] (Homo sapiens, A549) was 9.41 ± 0.68 µM; in experiment [3] (MDA-MB-231, 48 h), 29.6 ± 1.8 µM; in experiment [4] (MCF7, 48 h), 15.3 ± 0.94 µM; in experiment [5], over 50 µM. For the same molecule, the “SI MDA-MB-231 (selectivity index)” value in experiment [3] was over 1.69. In addition, in experiment [4], the “SI MCF-7 (selectivity index)” value is over 3.27.

Take `COC1=CC2[C@H]3Cc4ccc(OC)c(OC(=O)c5ccccc5C(=O)OCCCCCCOc5no[n+]([O-])c5S(=O)(=O)c5ccccc5)c4[C@@]2(CCN3C)CC1=O` (stereo partly drawn) [7Ec, 4-((6-((2-((((4bs,9R)-3,7-Dimethoxy-11-methyl-6-oxo-6,8a,9,10-tetrahydro-5H-9,4b-(epiminoethano)phenanthren-4-yl)oxy)carbonyl)benzoyl)oxy)hexyl)oxy)-3-(phenylsulfonyl)-1,2,5-oxadiazole 2-oxide]: the half-maximal inhibitory concentration (IC50) in experiment [2] (Homo sapiens, A549) came to 4.81 ± 0.18 µM; in experiment [3] (MDA-MB-231, 48 h), 1.81 ± 0.13 µM; in experiment [4] (MCF7, 48 h) it was 3.94 ± 0.28 µM; in experiment [5] it was 48.3 ± 3.78 µM. In addition, the “SI MDA-MB-231 (selectivity index)” value in experiment [3] is 26.70. Moreover, the “SI MCF-7 (selectivity index)” value in experiment [4] was 12.26.

Take `COC1=CC2[C@H]3Cc4ccc(OC)c(OC(=O)c5ccccc5C(=O)OCCCOc5no[n+]([O-])c5S(=O)(=O)c5ccccc5)c4[C@@]2(CCN3C)CC1=O` (stereo partly drawn) [7Bc, 4–(3-((2-((((4bs,9R)-3,7-Dimethoxy-11-methyl-6-oxo-6,8a,9,10-tetrahydro-5H-9,4b-(epiminoethano)phenanthren-4-yl)oxy)carbonyl)benzoyl)oxy)propoxy)-3-(phenylsulfonyl)-1,2,5-oxadiazole 2-oxide]: the half-inhibitory concentration (IC50) in experiment [2] (Homo sapiens, A549) is 5.05 ± 0.21 µM; in experiment [3] (MDA-MB-231, 48 h), 18.7 ± 0.61 µM; in experiment [4] (MCF7, 48 h), 12.2 ± 0.92 µM; in experiment [5], over 50 µM. Also, the “SI MDA-MB-231 (selectivity index)” value in experiment [3] is on record as over 2.67. Also, the “SI MCF-7 (selectivity index)” value in experiment [4] is reported as over 4.11.

Regarding `COC1=CC2[C@H]3Cc4ccc(OC)c(OC(=O)CCC(=O)OCCCCCCOc5no[n+]([O-])c5S(=O)(=O)c5ccccc5)c4[C@@]2(CCN3C)CC1=O` (stereo partly drawn) [7Ea, 4-((6-((4-(((4bs,9R)-3,7-Dimethoxy-11-methyl-6-oxo-6,8a,9,10-tetrahydro-5H-9,4b-(epiminoethano)phenanthren-4-yl)oxy)-4-oxobutanoyl)oxy)hexyl)oxy)-3-(phenylsulfonyl)-1,2,5-oxadiazole 2-oxide], the IC50 in experiment [2] (Homo sapiens, A549) was found to be 4.62 ± 0.16 µM; in experiment [3] (MDA-MB-231, 48 h) it was 19 ± 0.7 µM; in experiment [4] (MCF7, 48 h), 25.3 ± 0.9 µM; in experiment [5] it was 43.6 ± 2.65 µM. In addition, the “SI MDA-MB-231 (selectivity index)” value in experiment [3] was determined as 2.30. In experiment [4], the “SI MCF-7 (selectivity index)” value came to 2.79.

For the molecule `COC1=CC2[C@H]3Cc4ccc(OC)c(OC(=O)CCCC(=O)OCCCCCCOc5no[n+]([O-])c5S(=O)(=O)c5ccccc5)c4[C@@]2(CCN3C)CC1=O` (stereo partly drawn) [7Eb, 4-((6-((5-(((4bs,9R)-3,7-Dimethoxy-11-methyl-6-oxo-6,8a,9,10-tetrahydro-5H-9,4b-(epiminoethano)phenanthren-4-yl)oxy)-5-oxopentanoyl)oxy)hexyl)oxy)-3-(phenylsulfonyl)-1,2,5-oxadiazole 2-oxide], the IC50 in experiment [2] (Homo sapiens, A549) was 4.55 ± 0.43 µM; in experiment [3] (MDA-MB-231, 48 h) it was 41.5 ± 1.48 µM; in experiment [4] (MCF7, 48 h) it was 17.9 ± 1.26 µM; in experiment [5] it was over 50 µM. Moreover, the “SI MDA-MB-231 (selectivity index)” value in experiment [3] was over 1.21. The “SI MCF-7 (selectivity index)” value in experiment [4] is recorded as over 2.79.

In the case of `N.N.[Cl][Pt][Cl]` [Cisplatin, cisplatin, reference compound], 4.97 ± 0.37 µM corresponded to half-maximal inhibition in experiment [2] (IC50).

Take `COC1=CC2[C@H]3Cc4ccc(OC)c(OC(=O)CCCC(=O)OCCCCOc5no[n+]([O-])c5S(=O)(=O)c5ccccc5)c4[C@@]2(CCN3C)CC1=O` (stereo partly drawn) [7Cb, 4–(4-((5-(((4bs,9R)-3,7-Dimethoxy-11-methyl-6-oxo-6,8a,9,10-tetrahydro-5H-9,4b-(epiminoethano)phenanthren-4-yl)oxy)-5-oxopentanoyl)oxy)butoxy)-3-(phenylsulfonyl)-1,2,5-oxadiazole 2-oxide]: the 50% inhibitory concentration (IC50) turned out to be 3.53 ± 0.29 µM in experiment [2] (Homo sapiens, A549); 1.47 ± 0.14 µM in experiment [3] (MDA-MB-231, 48 h); 4.68 ± 0.39 µM in experiment [4] (MCF7, 48 h); 36.7 ± 1.02 µM in experiment [5]. Also, the “SI MDA-MB-231 (selectivity index)” value in experiment [3] worked out at 24.97. In experiment [4], the “SI MCF-7 (selectivity index)” value was 7.84.

For `COc1cccc2c1C(=O)c1c(O)c3c(c(O)c1C2=O)C[C@@](O)(C(=O)CO)C[C@@H]3O[C@H]1C[C@H](N)[C@H](O)[C@H](C)O1` [Adriamycin, adriamycin, reference compound], the half-maximal inhibitory concentration (IC50) in experiment [3] (MDA-MB-231, CCK-8, 48 h, mean ± SD of three experiments) is 4.92 ± 0.44 µM; in experiment [4] (MCF7, CCK-8, 48 h, mean ± SD of three experiments) it was 5.12 ± 0.31 µM.

`COC1=CC2[C@H]3Cc4ccc(OC)c(OC(=O)CCCC(=O)OCCCCCOc5no[n+]([O-])c5S(=O)(=O)c5ccccc5)c4[C@@]2(CCN3C)CC1=O` (stereo partly drawn) [7Db, 4-((5-((5-(((4bs,9R)-3,7-Dimethoxy-11-methyl-6-oxo-6,8a,9,10-tetrahydro-5H-9,4b-(epiminoethano)phenanthren-4-yl)oxy)-5-oxopentanoyl)oxy)pentyl)oxy)-3-(phenylsulfonyl)-1,2,5-oxadiazole 2-oxide]: the 50% inhibitory concentration (IC50) turned out to be 3.92 ± 0.31 µM in experiment [2] (Homo sapiens, A549); 3.11 ± 0.22 µM in experiment [3] (MDA-MB-231, 48 h); 2.94 ± 0.27 µM in experiment [4] (MCF7, 48 h); 39.5 ± 2.9 µM in experiment [5]. Moreover, the “SI MDA-MB-231 (selectivity index)” value in experiment [3] was 12.69. The “SI MCF-7 (selectivity index)” value in experiment [4] worked out at 13.43.
